{"source": "patent US20220128542A1", "about": "“TREATMENT EFFICIENCY EVALUATION” (TX MEDIC AB, priority 2019, published 2022)", "system": "brain of rats subjected to severe traumatic brain injury (sTBI)", "assay": "HPLC of purine-pyrimidine metabolites (energy state, oxidative/nitrosative stress) in brain after sTBI (Example 1)", "assay_type": "in vivo, rat", "description": "They were divided into three groups:\n1) n=6 animals subjected to sTBI, with drug administration after 30 minutes and sacrifice at 2 days post-TBI (Acute phase 1)\n2) n=6 animals subjected to sTBI, with drug administration after 30 minutes and sacrifice at 7 days post-TBI (Acute phase 2).\n3) n=6 animals subjected to sTBI, with drug administration after 3 days and sacrifice at 7 days post-TBI (Chronic phase).\nThe drug treatment was a subcutaneous injection of 0.5 ml of LMW-DS (15 mg/kg) and administered according to the aforementioned schematic protocol.\nAfter the wet weight (w.w.) determination, tissue preparation was affected as previously disclosed (Tavazzi et al., Neurosurgery. 2005; 56: 582-589; Vagnozzi et al., Neurosurgery. 2007; 61: 379-388; Tavazzi et al., Neurosurgery. 2007; 61: 390-395; Amorini et al., J Cell Mol Med. 2017; 21: 530-542.). Briefly, whole brain homogenization was performed with 7 ml of ice-cold, nitrogen-saturated, precipitating solution composed by CH3CN+10 mM KH2PO4, pH 7.40, (3:1; v:v), and using an Ultra-Turrax set at 24,000 rpm/min (Janke & Kunkel, Staufen, Germany). After centrifugation at 20,690×g, for 10 min at 4° C., the clear supernatants were saved, pellets were supplemented with 3 ml of the precipitating solution and homogenized again as described above. A second centrifugation was performed (20,690×g, for 10 min at 4° C.), pellets were saved, supernatants combined with those previously obtained, extracted by vigorous agitation with a double volume of HPLC-grade CHCl3 and centrifuged as above. The upper aqueous phases containing water-soluble low-molecular weight compounds were collected, subjected to chloroform washings for two more times (this procedure allowed the removal of all the organic solvent and of any lipid soluble compound from the buffered tissue extracts), adjusted in volumes with 10 mM KH2PO4, pH 7.40, to have ultimately aqueous 10% tissue homogenates and saved at −80° C. until assayed.\nAliquots of each deproteinized tissue samples were filtered through a 0.45 μm HV Millipore filter and loaded (200 μl) onto a Hypersil C-18, 250×4.6 mm, 5 μm particle size column, provided with its own guard column (Thermo Fisher Scientific, Rodano, Milan, Italy) and connected to an HPLC apparatus consisting of a Surveyor System (Thermo Fisher Scientific, Rodano, Milan, Italy) with a highly sensitive diode array detector (equipped with a 5 cm light path flow cell) and set up between 200 and 300 nm wavelength. Data acquisition and analysis were performed by a PC using the ChromQuest® software package provided by the HPLC manufacturer.\nMetabolites belonging to the purine-pyrimidine profiles (listed below) and related to tissue energy state, mitochondrial function and relative to oxidative-nitrosative stresses were separated, in a single chromatographic run, according to slight modifications of existing ion-pairing HPLC methods (Lazzarino et al., Anal Biochem. 2003; 322: 51-59; Tavazzi et al., Clin Biochem. 2005; 38: 997-1008). Assignment and calculation of the compounds of interest in chromatographic runs of tissue extracts were carried out at the proper wavelengths (206, 234 and 260 nm) by comparing retention times, absorption spectra and areas of peaks with those of peaks of chromatographic runs of freshly-prepared ultra-pure standard mixtures with known concentrations. […]", "key": {"[1]": {"conditions": "Acute phase 1: 15 mg/kg s.c. 30 min post-sTBI, sacrifice day 2"}, "[2]": {"conditions": "Acute phase 2: 15 mg/kg s.c. 30 min post-sTBI, sacrifice day 7"}}, "note": "Marks after values point to notes of the source that are not given here.", "data": [{"substance": "sodium salt of dextran sulfate [LMW-DS]", "values": [{"measurement": "MDA levels", "setting": "15 mg/kg s.c. after sTBI", "result": "significant reduction"}, {"measurement": "ascorbic acid and GSH levels", "setting": "15 mg/kg s.c. after sTBI", "result": "significant improvement"}, {"measurement": "levels of NAA and its substrates", "setting": "15 mg/kg s.c. after sTBI", "result": "significant improvements"}, {"measurement": "nitrate concentrations", "setting": "15 mg/kg s.c., acute and chronic phases of sTBI", "result": "significantly decreased"}, {"measurement": "ADO brain concentration", "setting": "[1]", "result": "71.67 ± 15.87 nmol/g (w.w.)"}, {"measurement": "ADP brain concentration", "setting": "[1]", "result": "279.34 ± 29.59^b nmol/g (w.w.)"}, {"measurement": "ADP-ribose brain concentration", "setting": "[1]", "result": "137.87 ± 43.18^a nmol/g (w.w.)"}, {"measurement": "AMP brain concentration", "setting": "[1]", "result": "53.61 ± 17.91^a, c, j nmol/g (w.w.)"}, {"measurement": "ATP brain concentration", "setting": "[1]", "result": "1464.25 ± 99.09^a, h nmol/g (w.w.)"}, {"measurement": "CDP brain concentration", "setting": "[1]", "result": "25.53 ± 6.83^a, c nmol/g (w.w.)"}, {"measurement": "CDP choline brain concentration", "setting": "[1]", "result": "10.93 ± 3.22^b, h nmol/g (w.w.)"}, {"measurement": "CTP brain concentration", "setting": "[1]", "result": "18.98 ± 6.58^a, g nmol/g (w.w.)"}, {"measurement": "CoA-SH brain concentration", "setting": "[1]", "result": "21.61 ± 3.42^a, h nmol/g (w.w.)"}, {"measurement": "GDP brain concentration", "setting": "[1]", "result": "158.72 ± 24.57^a nmol/g (w.w.)"}, {"measurement": "GDP glucose brain concentration", "setting": "[1]", "result": "38.71 ± 6.86 nmol/g (w.w.)"}, {"measurement": "GMP brain concentration", "setting": "[1]", "result": "177.00 ± 32.39^a, g nmol/g (w.w.)"}, {"measurement": "GSH brain concentration", "setting": "[1]", "result": "2649.50 ± 397.31^a, d nmol/g (w.w.)"}, {"measurement": "GSSG brain concentration", "setting": "[1]", "result": "185.21 ± 48.10 nmol/g (w.w.)"}, {"measurement": "GTP brain concentration", "setting": "[1]", "result": "255.29 ± 45.21^a, g nmol/g (w.w.)"}, {"measurement": "IMP brain concentration", "setting": "[1]", "result": "67.71 ± 10.63^g, i nmol/g (w.w.)"}, {"measurement": "MDA brain concentration", "setting": "[1]", "result": "12.47 ± 2.09^a, c, g nmol/g (w.w.)"}, {"measurement": "NAA brain concentration", "setting": "[1]", "result": "6147.91 ± 989.12^a nmol/g (w.w.)"}, {"measurement": "NADH brain concentration", "setting": "[1]", "result": "15.49 ± 2.05^c, j nmol/g (w.w.)"}, {"measurement": "NADPH brain concentration", "setting": "[1]", "result": "6.22 ± 1.73 nmol/g (w.w.)"}, {"measurement": "NADP^+ brain concentration", "setting": "[1]", "result": "17.95 ± 3.28^a nmol/g (w.w.)"}, {"measurement": "NAD^+ brain concentration", "setting": "[1]", "result": "404.63 ± 51.10^a, c, i nmol/g (w.w.)"}, {"measurement": "NO2 brain concentration", "setting": "[1]", "result": "216.03 ± 41.74^a nmol/g (w.w.)"}, {"measurement": "NO3 brain concentration", "setting": "[1]", "result": "210.64 ± 91.95^d nmol/g (w.w.)"}, {"measurement": "UDP brain concentration", "setting": "[1]", "result": "61.83 ± 10.23^a, g nmol/g (w.w.)"}, {"measurement": "UDP-Gal brain concentration", "setting": "[1]", "result": "119.45 ± 12.50 nmol/g (w.w.)"}, {"measurement": "UDP-GalNac brain concentration", "setting": "[1]", "result": "19.17 ± 4.01^a nmol/g (w.w.)"}, {"measurement": "UDP-Glc brain concentration", "setting": "[1]", "result": "32.14 ± 4.59^g nmol/g (w.w.)"}, {"measurement": "UDP-GlcNac brain concentration", "setting": "[1]", "result": "95.85 ± 19.73^h, i nmol/g (w.w.)"}, {"measurement": "UMP brain concentration", "setting": "[1]", "result": "107.80 ± 21.62 nmol/g (w.w.)"}, {"measurement": "UTP brain concentration", "setting": "[1]", "result": "123.46 ± 15.42^d nmol/g (w.w.)"}, {"measurement": "acetyl-CoA brain concentration", "setting": "[1]", "result": "21.56 ± 6.22^a, g, i nmol/g (w.w.)"}, {"measurement": "adenine brain concentration", "setting": "[1]", "result": "44.82 ± 6.31^a, d, g nmol/g (w.w.)"}, {"measurement": "ascorbic acid brain concentration", "setting": "[1]", "result": "3733.10 ± 277.88^a, d nmol/g (w.w.)"}, {"measurement": "creatinine brain concentration", "setting": "[1]", "result": "24.55 ± 3.20^b, g, i nmol/g (w.w.)"}, {"measurement": "cytidine brain concentration", "setting": "[1]", "result": "15.40 ± 3.04 nmol/g (w.w.)"}, {"measurement": "cytosine brain concentration", "setting": "[1]", "result": "17.69 ± 2.50^b, d nmol/g (w.w.)"}, {"measurement": "guanine brain concentration", "setting": "[1]", "result": "4.80 ± 1.24^b nmol/g (w.w.)"}, {"measurement": "guanosine brain concentration", "setting": "[1]", "result": "20.71 ± 5.66 nmol/g (w.w.)"}, {"measurement": "hypoxanthine brain concentration", "setting": "[1]", "result": "14.47 ± 2.87^a nmol/g (w.w.)"}, {"measurement": "inosine brain concentration", "setting": "[1]", "result": "92.55 ± 31.20^c nmol/g (w.w.)"}, {"measurement": "malonyl-CoA brain concentration", "setting": "[1]", "result": "12.33 ± 1.82^b nmol/g (w.w.)"}, {"measurement": "orotic acid brain concentration", "setting": "[1]", "result": "8.80 ± 2.45^b, h, j nmol/g (w.w.)"}, {"measurement": "thymidine brain concentration", "setting": "[1]", "result": "0.69 ± 0.11 nmol/g (w.w.)"}, {"measurement": "uracil brain concentration", "setting": "[1]", "result": "14.56 ± 5.44 nmol/g (w.w.)"}, {"measurement": "uric acid brain concentration", "setting": "[1]", "result": "23.62 ± 3.77^a, d, h nmol/g (w.w.)"}, {"measurement": "uridine brain concentration", "setting": "[1]", "result": "76.35 ± 12.85^a, c nmol/g (w.w.)"}, {"measurement": "xanthine brain concentration", "setting": "[1]", "result": "9.46 ± 2.34^d nmol/g (w.w.)"}, {"measurement": "β-pseudouridine brain concentration", "setting": "[1]", "result": "6.65 ± 1.309^g, i nmol/g (w.w.)"}, {"measurement": "ADO brain concentration", "setting": "[2]", "result": "82.11 ± 16.51^a nmol/g (w.w.)"}, {"measurement": "ADP brain concentration", "setting": "[2]", "result": "264.07 ± 28.29^b, e, j nmol/g (w.w.)"}, {"measurement": "ADP-ribose brain concentration", "setting": "[2]", "result": "141.96 ± 23.56^a, e, j nmol/g (w.w.)"}, {"measurement": "AMP brain concentration", "setting": "[2]", "result": "57.70 ± 23.01^a, e, j nmol/g (w.w.)"}, {"measurement": "ATP brain concentration", "setting": "[2]", "result": "1632.23 ± 90.07^a, e, j nmol/g (w.w.)"}, {"measurement": "CDP brain concentration", "setting": "[2]", "result": "24.29 ± 6.76^a nmol/g (w.w.)"}, {"measurement": "CDP choline brain concentration", "setting": "[2]", "result": "6.91 ± 1.86 nmol/g (w.w.)"}, {"measurement": "CMP brain concentration", "setting": "[2]", "result": "15.68 ± 2.12^f, j nmol/g (w.w.)"}, {"measurement": "CTP brain concentration", "setting": "[2]", "result": "32.63 ± 3.99^e, i nmol/g (w.w.)"}, {"measurement": "CoA-SH brain concentration", "setting": "[2]", "result": "30.57 ± 6.02^f nmol/g (w.w.)"}, {"measurement": "GDP brain concentration", "setting": "[2]", "result": "126.70 ± 31.35^a, j nmol/g (w.w.)"}, {"measurement": "GDP glucose brain concentration", "setting": "[2]", "result": "49.25 ± 10.33^a nmol/g (w.w.)"}, {"measurement": "GMP brain concentration", "setting": "[2]", "result": "91.47 ± 12.35^e, i nmol/g (w.w.)"}, {"measurement": "GSH brain concentration", "setting": "[2]", "result": "2821.50 ± 242.82^a, e nmol/g (w.w.)"}, {"measurement": "GSSG brain concentration", "setting": "[2]", "result": "219.54 ± 53.36 nmol/g (w.w.)"}, {"measurement": "GTP brain concentration", "setting": "[2]", "result": "336.65 ± 35.18^a, e, j nmol/g (w.w.)"}, {"measurement": "IMP brain concentration", "setting": "[2]", "result": "102.63 ± 22.09^a nmol/g (w.w.)"}, {"measurement": "MDA brain concentration", "setting": "[2]", "result": "4.82 ± 1.73^a, e, i nmol/g (w.w.)"}, {"measurement": "NAA brain concentration", "setting": "[2]", "result": "7262.84 ± 749.73^a, e nmol/g (w.w.)"}, {"measurement": "NADH brain concentration", "setting": "[2]", "result": "13.12 ± 4.19^e nmol/g (w.w.)"}, {"measurement": "NADPH brain concentration", "setting": "[2]", "result": "7.05 ± 2.21 nmol/g (w.w.)"}, {"measurement": "NADP^+ brain concentration", "setting": "[2]", "result": "21.27 ± 4.19^b, e, j nmol/g (w.w.)"}, {"measurement": "NAD^+ brain concentration", "setting": "[2]", "result": "401.18 ± 34.53^a, e, i nmol/g (w.w.)"}]}]}
